{"source": "patent US20110195147A1", "about": "“IRON SOURCE PRODUCT IN THE FORM OF CAPSULES AND PROCESS FOR THEIR PREPARATION” (AB-BIOTICS S.A., priority 2008, published 2011)", "test_system": "HELA cell line", "test": "Capsule cytotoxicity, EZ4U cell proliferation and cytotoxicity assay", "details": "for % Viability 24 h: 24 h incubation; for % Viability 72 h: 72 h incubation", "experimental": "The test involved incubating cells from the HELA cell line with the substances against which the cytotoxicity was going to be tested, this test being commonly used as a way to check the toxicity. The tested compounds included the capsules, as well as their main constituents separately: the iron salt used in the capsules (ferric saccharate), and sodium alginate. A negative control, which contained HELA growth medium alone, was also prepared, and used as the reference growth.\nThe test media were prepared under sterile conditions. Capsules prepared as in Example 1 (Capsule 0; batch 2 of Example 3) were sterilised in an autoclave (20 min, 110° C.). Using sterile material, 72 mg of capsules (capsules medium), 17 mg of ferric saccharate (iron salt medium) and 18 mg of sodium alginate (alginate medium) were each dissolved in 50 mL of HELA growth medium. […] 1:1, 1:10 and 1:100 dilutions of each of the test media were prepared by diluting the following amounts of capsules, iron salt or alginate medium with fresh HELA growth medium: • 1:1 20 μL+0 μL fresh HELA medium • 1:10 2 μL+18 μL fresh HELA medium • 1:100 0.2 μL+19.8 μL fresh HELA medium\n3500 HeLa cells were cultured in 36 wells of two 96 well plates: 9 control wells and 27 for triplicates of 3 concentrations of 3 products. Medium was added to each well up to 100 μL. The cells were incubated at 37° C. for 24 h. 20 μL of each test media and 80 μL of fresh medium were added to each well. In the controls only 100 μL of fresh medium were added. One of the plates was incubated for 24 h and the other one for 72 h. The viability of the cells was measured after 24 and 72 h of incubation using the EZ4U non-radioactive cell proliferation and cytotoxicity assay (Biomedica Medizinproducte GmbH).\nThe results were expressed as percentage of growth with respect to the controls, i. e. as the percentage of viability, which is computed as the number of living cells in any of the test solutions (capsules, ferric saccharate or sodium alginate) divided by the number of living cells in the negative control, and expressed as percentage."}
{"substance": "ferric saccharate [Iron salt]", "values": [{"measurement": "% Viability 24 h", "setting": "dilution 1:1, relative to negative control", "value": "76.3% ± 9.7"}, {"measurement": "% Viability 24 h", "setting": "dilution 1:10", "value": "101.7% ± 8.5"}, {"measurement": "% Viability 24 h", "setting": "dilution 1:100", "value": "95.7% ± 3.2"}, {"measurement": "% Viability 72 h", "setting": "dilution 1:1", "value": "66.8% ± 23.0"}, {"measurement": "% Viability 72 h", "setting": "dilution 1:10", "value": "62.0% ± 15.7"}, {"measurement": "% Viability 72 h", "setting": "dilution 1:100", "value": "68.7% ± 15.3"}]}
{"substance": "sodium alginate", "values": [{"measurement": "cytotoxicity (in words)", "value": "No toxicity was observed"}]}
